Values joined by “and” are separate entries in the source; they are usually repeats but may differ in a detail not shown here. Identical values can stand only once. Numbers after ± are expanded uncertainties.
Tests used:
[1] = 101.3 kPa, Liquid; for speed of sound: Sing-around technique in a fixed-path interferometer
[2] = xn = mol fraction of the nth substance listed; details: 101.3 kPa, Liquid, x2 = 0; for speed of sound: Sing-around technique in a fixed-path interferometer

| Structure (SMILES) | mass density ([1]; 288.15 K) | speed of sound ([1]; 288.15 K) | mass density ([1]; 298.15 K) | speed of sound ([1]; 298.15 K) | mass density ([1]; 323.15 K) | speed of sound ([1]; 323.15 K) | speed of sound ([2]; 288.15 K) [m/s] | mass density ([2]; 288.15 K) [kg/m3] | speed of sound ([2]; 298.15 K) [m/s] | mass density ([2]; 298.15 K) [kg/m3] | speed of sound ([2]; 323.15 K) [m/s] | mass density ([2]; 323.15 K) [kg/m3] | further results |
| --- | --- | --- | --- | --- | --- | --- | --- | --- | --- | --- | --- | --- | --- |
| CC(C)CC(C)(C)C [2,2,4-trimethylpentane] | 695.948 ± 1.2 kg/m3 | 1124.3 ± 2.2 m/s | 687.749 ± 1.2 kg/m3 | 1082.2 ± 2.2 m/s | 666.832 ± 1.3 kg/m3 | 979.25 ± 2.2 m/s | – | – | – | – | – | – | – |
| CC(C)CC(C)(C)C [2,2,4-trimethylpentane] + CCOC(C)(C)C | – | – | – | – | – | – | 1124.3 ± 2.2 | 695.948 ± 1.2 | 1082.2 ± 2.2 | 687.749 ± 1.2 | 979.25 ± 2.2 | 666.832 ± 1.3 | – |
| CCOC(C)(C)C [2-ethoxy-2-methylpropane] | 745.656 ± 1.1 kg/m3 and 744.955 ± 1.1 kg/m3 | 1078.9 ± 2.2 m/s and 1076.4 ± 2.2 m/s | 735.357 ± 1.1 kg/m3 and 734.806 ± 1.1 kg/m3 | 1033.2 ± 2.2 m/s and 1031 ± 2.2 m/s | 709.007 ± 1.2 kg/m3 and 708.642 ± 1.2 kg/m3 and 708.996 ± 1.2 kg/m3 | 922.48 ± 2.2 m/s and 920.73 ± 2.2 m/s and 922.08 ± 2.2 m/s | – | – | – | – | – | – | mass density ([1]; 303.15 K): 730.186 ± 1.1 kg/m3; speed of sound ([1]; 303.15 K): 1010.2 ± 2.2 m/s; mass density ([1]; 313.15 K): 719.687 ± 1.2 kg/m3; speed of sound ([1]; 313.15 K): 965.87 ± 2.2 m/s |
| CC(C)(C)O [2-methylpropan-2-ol] | – | – | – | – | 753.679 ± 1 kg/m3 | 1013 ± 2.2 m/s | – | – | – | – | – | – | mass density ([1]; 303.15 K): 775.028 ± 0.98 kg/m3; speed of sound ([1]; 303.15 K): 1098.2 ± 2.2 m/s; mass density ([1]; 313.15 K): 764.554 ± 1 kg/m3; speed of sound ([1]; 313.15 K): 1055.4 ± 2.2 m/s |
| CC(C)(C)O [2-methylpropan-2-ol] + CCOC(C)(C)C | – | – | – | – | – | – | – | – | – | – | 1013 ± 2.2 | 753.679 ± 1 | speed of sound ([2]; 303.15 K): 1098.2 ± 2.2 m/s; mass density ([2]; 303.15 K): 775.028 ± 0.98 kg/m3; speed of sound ([2]; 313.15 K): 1055.4 ± 2.2 m/s; mass density ([2]; 313.15 K): 764.554 ± 1 kg/m3 |
| c1ccccc1 [benzene] | 884.183 ± 0.65 kg/m3 | 1345.5 ± 2.2 m/s | 873.52 ± 0.68 kg/m3 | 1298.3 ± 2.2 m/s | 846.641 ± 0.77 kg/m3 | 1184.6 ± 2.2 m/s | – | – | – | – | – | – | – |
| c1ccccc1 [benzene] + CCOC(C)(C)C | – | – | – | – | – | – | 1345.5 ± 2.2 | 884.183 ± 0.65 | 1298.3 ± 2.2 | 873.52 ± 0.68 | 1184.6 ± 2.2 | 846.641 ± 0.77 | – |
| CCO [ethanol] | 793.644 ± 0.93 kg/m3 | 1177.3 ± 2.2 m/s | 785.082 ± 0.95 kg/m3 | 1142.4 ± 2.2 m/s | 763.177 ± 1 kg/m3 | 1059.3 ± 2.1 m/s | – | – | – | – | – | – | – |
| CCO [ethanol] + CCOC(C)(C)C | – | – | – | – | – | – | 1177.3 ± 2.2 | 793.644 ± 0.93 | 1142.4 ± 2.2 | 785.082 ± 0.95 | 1059.3 ± 2.1 | 763.177 ± 1 | – |
| CCc1ccccc1 [ethylbenzene] | 870.736 ± 0.69 kg/m3 | 1359.1 ± 2.2 m/s | 862.068 ± 0.72 kg/m3 | 1316.2 ± 2.2 m/s | 840.054 ± 0.78 kg/m3 | 1213.6 ± 2.2 m/s | – | – | – | – | – | – | – |
| CCc1ccccc1 [ethylbenzene] + CCOC(C)(C)C | – | – | – | – | – | – | 1359.1 ± 2.2 | 870.736 ± 0.69 | 1316.2 ± 2.2 | 862.068 ± 0.72 | 1213.6 ± 2.2 | 840.054 ± 0.78 | – |
| Cc1ccccc1 [toluene] | 871.457 ± 0.69 kg/m3 | 1347.5 ± 2.2 m/s | 862.173 ± 0.72 kg/m3 | 1303.4 ± 2.2 m/s | 838.706 ± 0.79 kg/m3 | 1196.6 ± 2.2 m/s | – | – | – | – | – | – | – |
| Cc1ccccc1 [toluene] + CCOC(C)(C)C | – | – | – | – | – | – | 1347.5 ± 2.2 | 871.457 ± 0.69 | 1303.4 ± 2.2 | 862.173 ± 0.72 | 1196.6 ± 2.2 | 838.706 ± 0.79 | – |

From the NIST ThermoML archive (doi:10.1016/j.jct.2007.05.005)
